Results as given in ChEMBL document CHEMBL1201862, “PubChem BioAssay data set” (2004).
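Values below derive from 48-hour exposures of cells grown in 96-well plates, with endpoints linearly interpolated between the two concentrations bracketing the appropriate inhibition level. GI50 = concentration required for 50% inhibition of growth.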 Activity calls are given as the source filed them. Rule as the data show it: active = GI50 up to about 1.1 µM and inactive = higher.

Experiments:
Test in all cases: NCI tumour cell line growth inhibition, 48 h
HOP-62 = system: HOP-62
NCI-H23 = system: NCI-H23
HCT-116 = system: HCT-116
CCRF-CEM = system: CCRF-CEM
SN12C = system: SN12C
SK-MEL-28 = system: SK-MEL-28
MDA-MB-231 = system: MDA-MB-231
NCI/ADR-RES = system: NCI/ADR-RES
RXF 393 = system: RXF 393
ACHN = system: ACHN
UO-31 = system: UO-31
BT-549 = system: BT-549
NCI-H226 = system: NCI-H226
786-0 = system: 786-0
OVCAR-4 = system: OVCAR-4
SK-MEL-5 = system: SK-MEL-5
OVCAR-5 = system: OVCAR-5
SW-620 = system: SW-620
EKVX = system: EKVX
Hs-578T = system: Hs-578T
PC-3 = system: PC-3
HOP-92 = system: HOP-92
KM12 = system: KM12
SNB-19 = system: SNB-19
U-251 = system: U-251
SF-295 = system: SF-295
IGROV-1 = system: IGROV-1
TK-10 = system: TK-10
OVCAR-3 = system: OVCAR-3
OVCAR-8 = system: OVCAR-8
SK-MEL-2 = system: SK-MEL-2
RPMI-8226 = system: RPMI-8226
M14 = system: M14
A549 = system: A549
Malme-3M = system: Malme-3M
UACC-62 = system: UACC-62
LOX IMVI = system: LOX IMVI
SR = system: SR
NCI-H460 = system: NCI-H460
DU-145 = system: DU-145
HL-60 = system: HL-60
UACC-257 = system: UACC-257
HCT-15 = system: HCT-15
MDA-N = system: MDA-N
K562 = system: K562
T47D = system: T47D
CAKI-1 = system: CAKI-1
SF-268 = system: SF-268
MOLT-4 = system: MOLT-4
A498 = system: A498
HT-29 = system: HT-29
NCI-H522 = system: NCI-H522
SNB-75 = system: SNB-75
SF-539 = system: SF-539
HCC 2998 = system: HCC 2998

Cc1cccc2c1Oc1ccccc1C2NC(=O)c1ccc([N+](=O)[O-])cc1 (stereo not given)
GI50 (HOP-62): 28.8 µM (inactive) | GI50 (NCI-H23): > 100 µM (inactive) | GI50 (HCT-116): > 100 µM (inactive) | GI50 (CCRF-CEM): > 100 µM (inactive) | GI50 (SN12C): 29.3 µM (inactive) | GI50 (SK-MEL-28): > 100 µM (inactive) | GI50 (MDA-MB-231): 66.1 µM (inactive) | GI50 (NCI/ADR-RES): 79.4 µM (inactive) | GI50 (RXF 393): 23.7 µM (inactive) | GI50 (ACHN): > 100 µM (inactive) | GI50 (UO-31): > 100 µM (inactive) | GI50 (BT-549): 56 µM (inactive) | GI50 (NCI-H226): 15.6 µM (inactive) | GI50 (786-0): > 100 µM (inactive) | GI50 (OVCAR-4): 32.2 µM (inactive) | GI50 (SK-MEL-5): > 100 µM (inactive) | GI50 (OVCAR-5): > 100 µM (inactive) | GI50 (SW-620): > 100 µM (inactive) | GI50 (EKVX): > 100 µM (inactive) | GI50 (Hs-578T): 29.4 µM (inactive) | GI50 (PC-3): > 100 µM (inactive) | GI50 (HOP-92): > 100 µM (inactive) | GI50 (KM12): > 100 µM (inactive) | GI50 (SNB-19): > 100 µM (inactive) | GI50 (U-251): 57.8 µM (inactive) | GI50 (SF-295): > 100 µM (inactive) | GI50 (IGROV-1): > 100 µM (inactive) | GI50 (TK-10): > 100 µM (inactive) | GI50 (OVCAR-3): 99.3 µM (inactive) | GI50 (OVCAR-8): > 100 µM (inactive) | GI50 (SK-MEL-2): > 100 µM (inactive) | GI50 (RPMI-8226): > 100 µM (inactive) | GI50 (M14): > 100 µM (inactive) | GI50 (A549): > 100 µM (inactive) | GI50 (Malme-3M): 86.7 µM (inactive) | GI50 (UACC-62): > 100 µM (inactive) | GI50 (LOX IMVI): > 100 µM (inactive) | GI50 (SR): > 100 µM (inactive) | GI50 (NCI-H460): > 100 µM (inactive) | GI50 (DU-145): 21 µM (inactive) | GI50 (HL-60): > 100 µM (inactive) | GI50 (UACC-257): > 100 µM (inactive) | GI50 (HCT-15): > 100 µM | GI50 (MDA-N): > 100 µM (inactive) | GI50 (K562): > 100 µM (inactive) | GI50 (T47D): > 100 µM (inactive) | GI50 (CAKI-1): 69 µM (inactive) | GI50 (SF-268): 95.3 µM (inactive) | GI50 (MOLT-4): > 100 µM (inactive) | GI50 (A498): 76.4 µM (inactive) | GI50 (HT-29): > 100 µM (inactive) | GI50 (NCI-H522): > 100 µM (inactive)

COC(=O)c1cc(C)ccc1/C=C1\Cc2cc(C)c(C)cc2C1=O
GI50 (HOP-62): 39 µM (inactive) | GI50 (NCI-H23): > 100 µM (inactive) | GI50 (SNB-75): 17.5 µM (inactive) | GI50 (HCT-116): > 100 µM (inactive) | GI50 (CCRF-CEM): 0.108 µM (active) | GI50 (SN12C): > 100 µM (inactive) | GI50 (SK-MEL-28): > 100 µM (inactive) | GI50 (MDA-MB-231): > 100 µM (inactive) | GI50 (RXF 393): 50.5 µM (inactive) | GI50 (ACHN): > 100 µM (inactive) | GI50 (UO-31): > 100 µM (inactive) | GI50 (BT-549): > 100 µM (inactive) | GI50 (NCI-H226): > 100 µM (inactive) | GI50 (786-0): 55.8 µM (inactive) | GI50 (OVCAR-4): > 100 µM (inactive) | GI50 (SK-MEL-5): > 100 µM (inactive) | GI50 (OVCAR-5): > 100 µM (inactive) | GI50 (SW-620): > 100 µM (inactive) | GI50 (EKVX): > 100 µM (inactive) | GI50 (Hs-578T): 38.8 µM (inactive) | GI50 (PC-3): > 100 µM (inactive) | GI50 (HOP-92): 36.2 µM (inactive) | GI50 (KM12): > 100 µM (inactive) | GI50 (SNB-19): 29.9 µM (inactive) | GI50 (SF-295): 38.7 µM (inactive) | GI50 (IGROV-1): > 100 µM (inactive) | GI50 (TK-10): > 100 µM (inactive) | GI50 (OVCAR-3): 51.1 µM (inactive) | GI50 (OVCAR-8): > 100 µM (inactive) | GI50 (SK-MEL-2): 60.3 µM (inactive) | GI50 (RPMI-8226): > 100 µM (inactive) | GI50 (M14): > 100 µM (inactive) | GI50 (A549): > 100 µM (inactive) | GI50 (Malme-3M): > 100 µM (inactive) | GI50 (UACC-62): 27.8 µM (inactive) | GI50 (LOX IMVI): > 100 µM (inactive) | GI50 (SR): > 100 µM (inactive) | GI50 (NCI-H460): > 100 µM (inactive) | GI50 (DU-145): > 100 µM (inactive) | GI50 (SF-539): > 100 µM (inactive) | GI50 (HL-60): > 100 µM (inactive) | GI50 (UACC-257): > 100 µM (inactive) | GI50 (HCT-15): > 100 µM | GI50 (MDA-N): > 100 µM (inactive) | GI50 (K562): 89.3 µM (inactive) | GI50 (T47D): > 100 µM (inactive) | GI50 (CAKI-1): > 100 µM (inactive) | GI50 (SF-268): 41.1 µM (inactive) | GI50 (HCC 2998): > 100 µM (inactive) | GI50 (MOLT-4): 33.1 µM (inactive) | GI50 (A498): 68.9 µM (inactive) | GI50 (HT-29): > 100 µM (inactive) | GI50 (NCI-H522): > 100 µM (inactive)
